Source: ChEMBL document CHEMBL1158334, “Two new chymotrypsin inhibitors isolated from the Cyanobacterium Microcystis aeruginosa NIES-88” (J Nat Prod, 2005)

Columns and labels:
[1] = Inhibition of chymotrypsin
[2] = Inhibition of trypsin

Row | Compound | IC50 [1] | IC50 [2]
1 | CCCC(=O)N[C@@H](Cc1ccc(O)cc1)C(=O)N[C@@H](CCC(=O)N[C@@H]1C(=O)N[C@@H](Cc2ccc(O)cc2)C(=O)N[C@H]2CC[C@@H](O)N(C2=O)[C@@H](C(C)C)C(=O)N(C)[C@@H](Cc2ccccc2)C(=O)N[C@@H]([C@@H](C)CC)C(=O)O[C@@H]1C)C(=O)O [MICROPEPTIN 88 C] | 4.6 µM | > 100 µM
2 | CCCC(=O)N[C@@H](Cc1ccc(O)cc1)C(=O)N[C@@H](CCC(=O)N[C@@H]1C(=O)N[C@@H](CC(C)C)C(=O)N[C@H]2CC[C@@H](O)N(C2=O)[C@@H](C(C)C)C(=O)N(C)[C@@H](Cc2ccccc2)C(=O)N[C@@H]([C@@H](C)CC)C(=O)O[C@@H]1C)C(=O)O [MICROPEPTIN 88 E] | 5 µM | > 100 µM
3 | CCCC(=O)N[C@@H](Cc1ccc(O)cc1)C(=O)N[C@@H](CCC(=O)N[C@@H]1C(=O)N[C@@H](C[C@H]2C=C[C@H](O)CC2)C(=O)N[C@H]2CC[C@@H](O)N(C2=O)[C@@H](C(C)C)C(=O)N(C)[C@@H](Cc2ccccc2)C(=O)N[C@@H]([C@@H](C)CC)C(=O)O[C@@H]1C)C(=O)O [MICROPEPTIN 88 D] | 9 µM | > 100 µM
4 | CC[C@H](C)[C@@H]1NC(=O)[C@H](Cc2ccc(O)cc2)N(C)C(=O)[C@H](Cc2ccccc2)N2C(=O)[C@H](CC[C@H]2O)NC(=O)[C@H](Cc2ccccc2)NC(=O)[C@@H](NC(=O)[C@@H](O)COP(=O)(O)O)[C@@H](C)OC1=O [MICROPEPTIN T 20] | 2500 µM | > 100 µM
5 | CCCC(=O)N[C@@H](Cc1ccc(O)cc1)C(=O)N[C@@H](CCC(=O)N[C@@H]1C(=O)N[C@@H](CCC(=O)O)C(=O)N[C@H]2CC[C@@H](O)N(C2=O)[C@@H](C(C)C)C(=O)N(C)[C@@H](Cc2ccccc2)C(=O)N[C@@H]([C@@H](C)CC)C(=O)O[C@@H]1C)C(=O)O [MICROPEPTIN 88 B] | > 100 µM | > 100 µM
6 | CC[C@H](C)[C@H](NC(=O)[C@H](O)Cc1ccc(O)cc1)C(=O)N[C@@H](CCO)C(=O)N[C@@H]1C(=O)N[C@@H](CCO)C(=O)N[C@H]2CC[C@@H](O)N(C2=O)[C@@H](Cc2ccccc2)C(=O)N(C)[C@@H](Cc2ccc(O)cc2)C(=O)N[C@@H](C(C)C)C(=O)O[C@@H]1C [NOSTOCYCLIN] | > 100 µM | > 100 µM
7 | CCCCCC(=O)N[C@@H](CC(=O)O)C(=O)N[C@@H]1C(=O)N[C@@H](CCCCN)C(=O)N[C@H]2CC[C@@H](O)N(C2=O)[C@@H]([C@@H](C)CC)C(=O)N(C)[C@@H](Cc2ccc(O)cc2)C(=O)N[C@@H](C(C)C)C(=O)O[C@@H]1C [MICROPEPTIN SD944] | > 100 µM | 8.5 µM
8 | CCCCCC(=O)N[C@@H](CC(=O)O)C(=O)N[C@@H]1C(=O)N[C@@H](CCCNC(=N)N)C(=O)N[C@H]2CC[C@@H](O)N(C2=O)[C@@H]([C@@H](C)CC)C(=O)N(C)[C@@H](CC(=O)c2ccccc2N)C(=O)N[C@@H](C(C)C)C(=O)O[C@@H]1C [MICROPEPTIN SD999] | > 100 µM | 4 µM
9 | CC[C@H](C)[C@@H]1NC(=O)[C@H](Cc2ccc(O)cc2)N(C)C(=O)[C@H]([C@H](C)O)N2C(=O)[C@H](CC[C@H]2O)NC(=O)[C@H](CC(C)C)NC(=O)[C@@H](NC(=O)[C@H](CCC(N)=O)NC(=O)[C@H](CCc2ccc(O)cc2)NC(=O)[C@H](O)CO)[C@@H](C)OC1=O [OSCILLAPEPTIN G] | 4 µM | > 100 µM
10 | CCCCCC(=O)N[C@@H](CC(=O)O)C(=O)N[C@@H]1C(=O)N[C@@H](Cc2ccc(O)cc2)C(=O)N[C@H]2CC[C@@H](O)N(C2=O)[C@@H]([C@@H](C)CC)C(=O)N(C)[C@@H](Cc2c[nH]c3ccccc23)C(=O)N[C@@H](C(C)C)C(=O)O[C@@H]1C [MICROPEPTIN SD1002] | 3.2 µM | > 100 µM
11 | CC(C)[C@@H]1NC(=O)[C@H](Cc2ccc(O)cc2)N(C)C(=O)[C@H](Cc2ccccc2)N2C(=O)[C@H](CC[C@H]2O)NC(=O)[C@H](CCCNC(=N)N)NC(=O)[C@@H](NC(=O)[C@@H](O)COS(=O)(=O)O)[C@@H](C)OC1=O [MICROPEPTIN 90] | > 100 µM | 0.02 µM
12 | CCCC(=O)N[C@@H](Cc1ccc(O)cc1)C(=O)N[C@@H](CCC(=O)N[C@@H]1C(=O)N[C@@H](Cc2ccc(O)cc2)C(=O)N[C@H]2CC[C@@H](O)N(C2=O)[C@@H](C(C)C)C(=O)N(C)[C@@H](Cc2ccccc2)C(=O)N[C@@H]([C@@H](C)CC)C(=O)O[C@@H]1C)C(=O)OC [MICROPEPTIN 88 F] | 3.4 µM | > 100 µM
13 | CC[C@H](C)[C@@H]1NC(=O)[C@H](Cc2ccccc2)N(C)C(=O)[C@H](C(C)C)N2C(=O)[C@H](CC[C@H]2O)NC(=O)[C@H](Cc2ccc(O)cc2)NC(=O)[C@@H](NC(=O)CC[C@H](NC(=O)[C@H](Cc2ccc(O)cc2)NC(C)=O)C(=O)O)[C@@H](C)OC1=O [MICROPEPTIN 88 Y] | 1.3 µM | > 100 µM
14 | CC(C)CC(NC(=O)[C@H](O)COS(=O)(=O)O)C(=O)N[C@@H]1C(=O)N[C@@H](CCCNC(=N)N)C(=O)N[C@H]2CC[C@@H](O)N(C2=O)[C@@H](CC(C)C)C(=O)N(C)[C@@H](Cc2ccc(O)cc2)C(=O)N[C@@H](C(C)C)C(=O)O[C@@H]1C (single isomer, unassigned) | > 100 µM | 0.001 µM
15 | CCCCCCCC(=O)N[C@@H](CCC(=O)O)C(=O)N[C@@H]1C(=O)N[C@@H](CCCCN)C(=O)N[C@H]2CC[C@@H](O)N(C2=O)[C@@H](CC(C)C)C(=O)N(C)[C@@H](Cc2ccc(O)cc2)C(=O)N[C@@H](C(C)C)C(=O)O[C@@H]1C [MICROPEPTIN A] | > 100 µM | 0.07 µM
16 | CC[C@H](C)[C@@H]1NC(=O)[C@H](Cc2ccc(OC)cc2)N(C)C(=O)[C@H]([C@@H](C)CC)N2C(=O)[C@H](CC[C@H]2O)NC(=O)[C@H](CCc2ccc(O)cc2)NC(=O)[C@@H](NC(=O)[C@H](CCc2ccc(O)cc2)NC(=O)[C@@H](COS(=O)(=O)O)OC)[C@@H](C)OC1=O [OSCILLAPEPTIN] | 1.9 µM | > 100 µM
17 | CCCCCC(=O)N[C@@H](CC(=O)O)C(=O)N[C@@H]1C(=O)N[C@@H](Cc2ccc(O)cc2)C(=O)N[C@H]2CC[C@@H](O)N(C2=O)[C@@H]([C@@H](C)CC)C(=O)N(C)[C@@H](Cc2ccc(O)cc2)C(=O)N[C@@H](C(C)C)C(=O)O[C@@H]1C [MICROPEPTIN SD979] | 2.5 µM | > 100 µM
